Assay results as given in US11661426B2, “Imidazole-containing inhibitors of ALK2 kinase” (BioCryst Pharmaceuticals, Inc., priority 2017, dated 2023).

Molecular target: ALK2 (Homo sapiens (Human), UniProt Q04771)
Test: ALK2 inhibition, LanthaScreen Eu Kinase Binding Assay (ThermoFisher Scientific / Life Technologies)
Settings: read-out: Measured Ki (IC50) Value for Compounds: IC50
Description: Biochemical assays to measure the inhibitory effects of the compounds were performed by ThermoFisher Scientific (Life Technologies). ALK2 inhibition was tested using LanthaScreen™ Eu Kinase Binding Assay screening protocol.

ALK2, sequence (Q04771 21-509): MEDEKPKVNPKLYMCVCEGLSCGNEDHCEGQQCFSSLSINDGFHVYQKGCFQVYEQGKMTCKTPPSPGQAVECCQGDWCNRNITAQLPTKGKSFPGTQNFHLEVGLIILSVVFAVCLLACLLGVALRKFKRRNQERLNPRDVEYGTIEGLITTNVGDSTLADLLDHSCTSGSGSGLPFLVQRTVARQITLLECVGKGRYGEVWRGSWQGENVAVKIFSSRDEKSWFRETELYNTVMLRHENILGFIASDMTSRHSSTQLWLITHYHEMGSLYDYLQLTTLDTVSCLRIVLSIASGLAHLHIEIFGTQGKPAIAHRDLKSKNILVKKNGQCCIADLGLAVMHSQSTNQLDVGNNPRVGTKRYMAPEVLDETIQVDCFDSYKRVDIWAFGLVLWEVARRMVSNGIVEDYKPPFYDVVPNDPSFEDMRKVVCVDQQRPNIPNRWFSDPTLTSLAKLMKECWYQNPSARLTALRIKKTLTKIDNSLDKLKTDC

Row | Structure (SMILES) | IC50 [nM]
1 | c1ccc(C2CCCN2c2nc(Nc3cn(-c4cc[nH]n4)cn3)c3cccn3n2)nc1 (stereo not drawn) [Compound 74a, N-(1-(1H-pyrazol-3-yl)-1H-imidazol-4-yl)-2-(2-(pyridin-2-yl)pyrrolidin-1-yl)pyrrolo[2,1-f][1,2,4]triazin-4-amine] | > 1000
2 | COc1cc(-n2cnc(Nc3ccc4ccccc4n3)c2)cc(OC)c1OC [Compound 179b, N-(1-(3,4,5-trimethoxyphenyl)-1H-imidazol-4-yl)quinolin-2-amine] | < 100
3 | COc1cc(-n2cnc(Nc3nc(N4CCC[C@H]4C(N)=O)nc4cnn(C)c34)c2)cc(OC)c1OC [Compound 253c, (S)-1-(1-methyl-7-((1-(3,4,5-trimethoxyphenyl)-1H-imidazol-4-yl)amino)-1H-pyrazolo[4,3-d]pyrimidin-5-yl)pyrrolidine-2-carboxamide] | > 1000
4 | COc1cc(-n2cnc(Nc3nc(N4CCC[C@H]4CO)nc4sc(CN5CCCCC5)cc34)c2)cc(OC)c1OC [Compound 113b, (S)-(1-(6-(piperidin-1-ylmethyl)-4-((1-(3,4,5-trimethoxyphenyl)-1H-imidazol-4-yl)amino)thieno[2,3-d]pyrimidin-2-yl)pyrrolidin-2-yl)methanol] | < 100
5 | CN1CCN(c2nc(Nc3cn(C)cn3)c3cccn3n2)CC1 [Compound 34a, N-(1-methyl-1H-imidazol-4-yl)-2-(4-methylpiperazin-1-yl)pyrrolo[2,1-f][1,2,4]triazin-4-amine] | > 1000
6 | COc1cc(-n2cnc(Nc3nc4c(c(N5CCCC5)n3)CCN(Cc3ccccc3)C4)c2)cc(OC)c1OC [Compound 225b, 7-benzyl-4-(pyrrolidin-1-yl)-N-(1-(3,4,5-trimethoxyphenyl)-1H-imidazol-4-yl)-5,6,7,8-tetrahydropyrido[3,4-d]pyrimidin-2-amine] | < 100
7 | COc1cc(-n2cnc(Nc3nc(N4CCC[C@H]4CO)nc4sc(C(=O)OCC(C)C)cc34)c2)cc(OC)c1OC [Compound 92d, (S)-isobutyl 2-(2-(hydroxymethyl)pyrrolidin-1-yl)-4-((1-(3,4,5-trimethoxyphenyl)-1H-imidazol-4-yl)amino)thieno[2,3-d]pyrimidine-6-carboxylate] | 100 to 1000
8 | OC[C@@H]1CCCN1c1nc(Nc2cn(-c3ccc4c(c3)OCO4)cn2)c2ccsc2n1 [Compound 428b, (S)-(1-(4-((1-(benzo[d][1,3]dioxol-5-yl)-1H-imidazol-4-yl)amino)thieno[2,3-d]pyrimidin-2-yl)pyrrolidin-2-yl)methanol] | < 100
9 | COc1cc(-n2cnc(Nc3nc(N4CCC[C@H]4CO)nn4c(CN5CCN(C)CC5)ccc34)c2)cc(OC)c1OC [Compound 112b, (S)-(1-(7-((4-methylpiperazin-1-yl)methyl)-4-((1-(3,4,5-trimethoxyphenyl)-1H-imidazol-4-yl)amino)pyrrolo[2,1-f][1,2,4]triazin-2-yl)pyrrolidin-2-yl)methanol] | < 100
10 | COc1cc(-n2cnc(Nc3nc(N4[C@H](CO)C[C@H]5C[C@H]54)nc4c3CCC4)c2)cc(OC)c1OC [Compound 396a, ((1R,3S,5R)-2-(4-((1-(3,4,5-trimethoxyphenyl)-1H-imidazol-4-yl)amino)-6,7-dihydro-5H-cyclopenta[d]pyrimidin-2-yl)-2-azabicyclo[3.1.0]hexan-3-yl)methanol] | < 100
11 | OC[C@@H]1CCCN1c1nc(Nc2cn(-c3ccccc3F)cn2)c2cccn2n1 [Compound 36c, (S)-(1-(4-((1-(2-fluorophenyl)-1H-imidazol-4-yl)amino)pyrrolo[2,1-f][1,2,4]triazin-2-yl)pyrrolidin-2-yl)methanol] | < 100
12 | OC[C@@H]1CCCN1c1nc(Nc2cn(-c3ccccc3)cn2)c2cccn2n1 [Compound 8c, (S)-(1-(4-((1-phenyl-1H-imidazol-4-yl)amino)pyrrolo[2,1-f][1,2,4]triazin-2-yl)pyrrolidin-2-yl)methanol] | < 100
13 | COc1cc(F)c(CC(=O)N2CCN(c3nc(Nc4cn(-c5ccccc5)cn4)c4cccn4n3)CC2)c(F)c1 [Compound 52a, 2-(2,6-difluoro-4-methoxyphenyl)-1-(4-(4-((1-phenyl-1H-imidazol-4-yl)amino)pyrrolo[2,1-f][1,2,4]triazin-2-yl)piperazin-1-yl)ethanone] | 100 to 1000
14 | Cn1cnc(Nc2nc(N3CCCC3c3ccncc3)nn3cccc23)c1 (stereo not drawn) [Compound 20a, N-(1-methyl-1H-imidazol-4-yl)-2-(2-(pyridin-4-yl)pyrrolidin-1-yl)pyrrolo[2,1-f][1,2,4]triazin-4-amine] | 100 to 1000
15 | COc1cc(-n2cnc(Nc3nc(N4CCC[C@H]4CO)c4cccn4n3)c2)cc(C(C)=O)c1OC [Compound 234e, (S)-1-(5-(4-((4-(2-(hydroxymethyl)pyrrolidin-1-yl)pyrrolo[2,1-f][1,2,4]triazin-2-yl)amino)-1H-imidazol-1-yl)-2,3-dimethoxyphenyl)ethanone] | 100 to 1000
16 | COc1cc(-n2cnc(Nc3nc(N4CCC[C@H]4C(N)=O)nc4sc(CN5CCCC5)cc34)c2)cc(OC)c1OC [Compound 403h, (S)-1-(6-(pyrrolidin-1-ylmethyl)-4-((1-(3,4,5-trimethoxyphenyl)-1H-imidazol-4-yl)amino)thieno[2,3-d]pyrimidin-2-yl)pyrrolidine-2-carboxamide] | < 100

The remaining lines, values ahead:

Row | IC50 [nM] | Structure (SMILES)
17 | < 100 | COc1cc(-n2cnc(Nc3nc(N4CCC[C@H]4CO)c4c(C)nn(C5CCOC5)c4n3)c2)cc(OC)c1OC (stereo partly drawn) [Compound 446c, ((2S)-1-(3-methyl-1-(tetrahydrofuran-3-yl)-6-((1-(3,4,5-trimethoxyphenyl)-1H-imidazol-4-yl)amino)-1H-pyrazolo[3,4-d]pyrimidin-4-yl)pyrrolidin-2-yl)methanol]
18 | < 100 | COc1cc(-n2cnc(Nc3nc(N4CCC[C@H]4CO)nc4cc(Br)ccc34)c2)cc(OC)c1OC [Compound 344c, (S)-(1-(7-bromo-4-((1-(3,4,5-trimethoxyphenyl)-1H-imidazol-4-yl)amino)quinazolin-2-yl)pyrrolidin-2-yl)methanol]
19 | < 100 | COc1cc(-n2cnc(Nc3nc(N4CCC[C@@H]4CO)nc4c3CCC4)c2)cc(OC)c1OC [Compound 290a, (R)-(1-(4-((1-(3,4,5-trimethoxyphenyl)-1H-imidazol-4-yl)amino)-6,7-dihydro-5H-cyclopenta[d]pyrimidin-2-yl)pyrrolidin-2-yl)methanol]
20 | < 100 | COc1cc(-n2cnc(Nc3nc(N4CCC[C@H]4CO)c4c(C)nn(C5CCCCC5)c4n3)c2)cc(OC)c1OC [Compound 439c, (S)-(1-(1-cyclohexyl-3-methyl-6-((1-(3,4,5-trimethoxyphenyl)-1H-imidazol-4-yl)amino)-1H-pyrazolo[3,4-d]pyrimidin-4-yl)pyrrolidin-2-yl)methanol]
21 | < 100 | COc1cc(-n2cnc(Nc3nc(N4CCC[C@H]4CO)c4c(C)nn([C@H]5CC[C@H](N)CC5)c4n3)c2)cc(OC)c1OC [Compound 435e, ((S)-1-(1-((trans)-4-aminocyclohexyl)-3-methyl-6-((1-(3,4,5-trimethoxyphenyl)-1H-imidazol-4-yl)amino)-1H-pyrazolo[3,4-d]pyrimidin-4-yl)pyrrolidin-2-yl)methanol]
22 | < 100 | COc1cc(-n2cnc(Nc3nc(N4CCC[C@H]4CO)c4cccc(OC(C)C)c4n3)c2)cc(OC)c1OC [Compound 200b, (S)-(1-(8-isopropoxy-2-((1-(3,4,5-trimethoxyphenyl)-1H-imidazol-4-yl)amino)quinazolin-4-yl)pyrrolidin-2-yl)methanol]
23 | < 100 | COc1cc(-n2cnc(Nc3nc(N4CCC[C@H]4CO)c4c(C)nn(C5CCC5)c4n3)c2)cc(OC)c1OC [Compound 442c, (S)-(1-(1-cyclobutyl-3-methyl-6-((1-(3,4,5-trimethoxyphenyl)-1H-imidazol-4-yl)amino)-1H-pyrazolo[3,4-d]pyrimidin-4-yl)pyrrolidin-2-yl)methanol]
24 | < 100 | COc1cc(-n2cnc(Nc3nc(N4CCC[C@H]4CO)c4ncn(C)c4n3)c2)cc(OC)c1OC [Compound 388b, (S)-(1-(9-methyl-2-((1-(3,4,5-trimethoxyphenyl)-1H-imidazol-4-yl)amino)-9H-purin-6-yl)pyrrolidin-2-yl)methanol]
25 | < 100 | COc1cc(-n2cnc(Nc3nc(N4CCC[C@@H]4CO)nc4c3CCCC4)c2)cc(OC)c1OC [Compound 295b, (R)-(1-(4-((1-(3,4,5-trimethoxyphenyl)-1H-imidazol-4-yl)amino)-5,6,7,8-tetrahydroquinazolin-2-yl)pyrrolidin-2-yl)methanol]
26 | < 100 | COc1cc(-n2cnc(Nc3nc4c(c(N5CCC[C@@H]5CO)n3)CCC4)c2)cc(OC)c1OC [Compound 272b, (R)-(1-(2-((1-(3,4,5-trimethoxyphenyl)-1H-imidazol-4-yl)amino)-6,7-dihydro-5H-cyclopenta[d]pyrimidin-4-yl)pyrrolidin-2-yl)methanol]
27 | < 100 | COc1cc(-n2cnc(Nc3nc(N4CCC[C@H]4CO)nc4cc(C)ccc34)c2)cc(OC)c1OC [Compound 391c, (S)-(1-(7-methyl-4-((1-(3,4,5-trimethoxyphenyl)-1H-imidazol-4-yl)amino)quinazolin-2-yl)pyrrolidin-2-yl)methanol]
28 | < 100 | COc1cc(-n2cnc(Nc3nc(N4CCC[C@H]4CO)nn4c(CN5CCN(C6CC6)CC5)ccc34)c2)cc(OC)c1OC [Compound 106b, (S)-(1-(7-((4-cyclopropylpiperazin-1-yl)methyl)-4-((1-(3,4,5-trimethoxyphenyl)-1H-imidazol-4-yl)amino)pyrrolo[2,1-f][1,2,4]triazin-2-yl)pyrrolidin-2-yl)methanol]
29 | < 100 | COc1cc(-n2cnc(Nc3nc(N4CCC[C@H]4CO)nc4ccsc34)c2)cc(OC)c1OC [Compound 75b, (S)-(1-(4-((1-(3,4,5-trimethoxyphenyl)-1H-imidazol-4-yl)amino)thieno[3,2-d]pyrimidin-2-yl)pyrrolidin-2-yl)methanol]
30 | < 100 | COc1cc(-n2cnc(Nc3nc(N4CCC[C@H]4CO)nn4c(CNCC5CC5)ccc34)c2)cc(OC)c1OC [Compound 120a, (S)-(1-(7-(((cyclopropylmethyl)amino)methyl)-4-((1-(3,4,5-trimethoxyphenyl)-1H-imidazol-4-yl)amino)pyrrolo[2,1-f][1,2,4]triazin-2-yl)pyrrolidin-2-yl)methanol]
